# Several values for one entry are separate records, joined by “and”; a condition that tells them apart may be missing. Equal values may be shown once. Square brackets hold non-standard residues; d marks the D form. Peptide text beside a SMILES is read from it. pGlu = O=C1CC[C@@H](C(=O)O)N1
# What was measured:
# [1] = tested on: large intestinal epithelium; experiment: Mitotic rate (Colcemid-arrested metaphases) in the large intestinal epithelium after i.p. injection; assay type: in vivo, hairless mice; set-up: mitotic rate in the large intestinal epithelium, Treated group Mean / Mitotic rate, Treated: unit not given here; conditions: for cell proliferation in the large intestinal epithelium (mitotic rate), Treated: mean
# Protocol: (§1) All in vivo experiments were performed with hairless mice at 0800-0900 AM. The fractions were suspended in distilled water, slightly acidified (pH=6) and injected i.p. at different doses dependent on the purity of the fraction. The controls received solvent only. The pattern of cell proliferation after injecting the peptide was examined by varying the time between treatment and sacrifice.
# Two hours before sacrifice (except for the experiments testing tissue specificity in the kidney) all animals received Colcemid 0.15 mg per animal i.p. ^3 HTdR (tritiated thymidine) was injected 30 minutes before sacrifice (30 μCi per animal i.p.). […]
# Mitotic rate: After routine dehydration and paraffin embedding, sections were cut at 5 μm and stained with haematoxylin. Colcemid-arrested mitoses per 500 crypt cells were determined in ten longitudinally cut crypts in ileum and colon. Only crypts that were cut strictly longitudinally were accepted, viz., only those where the lumen of the crypt could be followed from the bottom of the gland to the lumen of the gut. No telophases were seen. The number of accumulated metaphases in epidermis Was determined by counting 25 vision fields of interfollicular epidermis (eyepiece 12.5, objective 40) and expressed as mitoses per vision field per 2h.
# [2] = tested on: kidney tubular epithelium; experiment: Tissue specificity: mitotic rate in kidney cortex after unilateral nephrectomy; assay type: in vivo, hairless mice; conditions: proliferation induced by contralateral nephrectomy; treated 18h after surgery, sacrifice at 42h
# Protocol: (§2) To test for possible tissue specificity of the tripeptide the back skin and a defined part of ileum of eight animals were fixed immediately after killing. The mitotic rate (see below) in sections from these tissues was compared with the corresponding values in solvent-treated animals. Unilateral nephrectomy (uNX) was performed in four animals, and the animals were treated with the tripeptide at 18h after surgery. Controls underwent uNX and received solvent only. These animals received Colcemid 3h before sacrifice at 42h. The mitotic rate (number of accumulated metaphases per 1000 cells per 3h) was registered in the outer part of the kidney cortex.
# [3] = tested on: large intestinal epithelium; experiment: Labelling index (3HTdR-labelled crypt cells) in the large intestinal epithelium after i.p. injection; assay type: in vivo, hairless mice; set-up: key to Labelling index, Treated: fraction of labelled cells per 500 crypt cells; conditions: for Labelling index, Treated: 10^-12 mole per animal
# Protocol: as §1
# (§3) Two hours before sacrifice (except for the experiments testing tissue specificity in the kidney) all animals received Colcemid 0.15 mg per animal i.p. ^3 HTdR (tritiated thymidine) was injected 30 minutes before sacrifice (30 μCi per animal i.p.).
# Labelling index: Paraffin sections, cut at 5 μm, were dipped in Kodak-NTB emulsion and exposed for 3 weeks at 0°-4° C., developed, and stained with haematoxylin The number of labelled cells were counted per 500 crypt cells in longitudinally cut crypts as described above. Similarly, the number of labelled cells in 40 vision fields of interfollicular epidermis (eyepiece 12.5, objective 40) was determined. A cell was considered labelled when the number of grains was five or more.
# [4] = tested on: colon carcinoma cell line HT 29; experiment: Proliferation of HT 29 cells, incorporation of tritiated thymidine; assay type: cell-based; conditions: for incorporation of 3HTdR, Treated (Mean): 1 % fetal calf serum, 6 hour-period
# Protocol: Cell culture: HT 29 cells, 20000 cells per well in 96-well tissue culture clusters. Medium: RPMI 1640, 1 % fetal calf serum Concentration of the tripeptide 10^-8 M, lyophilized peptide dissolved in medium.
# Assay for proliferation: Incorporation of tritiated thymidine (^3 HTdR) 6 hour-period, ^3 HTdR 1 uCi per well.
# The tripeptide was added to the culture on the third day (exponential growth), and the incorporation of tritiated thymidine was measured for 6 hour-periods at 16h, 24h, and 40h after the peptide was added to the wells.
# small intestine = experiment: Tissue specificity: mitotic rate in small intestine (ileum); assay type: in vivo, hairless mice; conditions: time and dose levels tested
# Protocol: as §2, §3
# (§4) Mitotic rate: After routine dehydration and paraffin embedding, sections were cut at 5 μm and stained with haematoxylin. Colcemid-arrested mitoses per 500 crypt cells were determined in ten longitudinally cut crypts in ileum and colon. Only crypts that were cut strictly longitudinally were accepted, viz., only those where the lumen of the crypt could be followed from the bottom of the gland to the lumen of the gut.
# epidermis = experiment: Tissue specificity: mitotic rate in epidermis (back skin); assay type: in vivo, hairless mice; conditions: time and dose levels tested
# Protocol: as §2, §3, §4
smiles,measurement,setting,value
"O=C(O)CC[C@H](NC(=O)[C@@H]1CCC(=O)N1)C(=O)N[C@@H](CC(=O)O)C(=O)N[C@@H](CO)C(=O)NCC(=O)O [pGlu-Glu-Asp-Ser-Gly (OH), reference compound] ([pGlu]EDSG-OH)",cell proliferation in the large intestinal epithelium,"[1]; 10^-12 mole per animal, doses and times tested",unchanged
"O=C(O)CNC(=O)[C@H](Cc1c[nH]cn1)NC(=O)[C@@H]1CCC(=O)N1 [pGlu-His-Gly(OH), L-pyroglutamyl-L-histidyl-glycine] ([pGlu]-His-Gly-OH)",inhibitory effect on cell proliferation in kidney tubular epithelium,[2],No inhibitory effect
same,"reduced LI, significance",[3]; 15 and 18 h after treatment,not statistically significant
same,"Labelling index, Treated",[3]; 2 h after single i.p. injection,0.086
same,labelling index (LI),[3]; 4h after injection,pronounced reduction
same,"Labelling index, Treated",[3]; 4 h after single i.p. injection,0.067
same,"Labelling index, Treated",[3]; 6 h after single i.p. injection,0.067
same,"Labelling index, Treated",[3]; 8 h after single i.p. injection,0.058
same,"Labelling index, Treated",[3]; 12 h after single i.p. injection,0.048
same,"Labelling index, Treated",[3]; 15 h after single i.p. injection,0.068
same,"Labelling index, Treated",[3]; 18 h after single i.p. injection,0.11
same,"Labelling index, Treated",[3]; 24 h after single i.p. injection,0.098
same,"number of labelled cells, second period",[3]; approximately 8h after the first decrease,second inhibition of the same degree
same,"incorporation of 3HTdR, Treated (Mean)","[4]; 10^-8 M, 16 h after addition of peptide",12177
same,"incorporation of 3HTdR, Treated (Mean)","[4]; 10^-8 M, 24 h after addition of peptide",9080
same,"incorporation of 3HTdR, Treated (Mean)","[4]; 10^-8 M, 40 h after addition of peptide",12485
same,incorporation of 3HTdR,"[4]; 10^-8 M, 24-30h after the treatment, 1 % serum",significant reduction
same,inhibition of 3HTdR incorporation,[4]; 10^-10 M,"less, but still significant inhibition"
same,growth of HT 29 cells with increased serum,[4]; serum addition increased to 10 &,varied between significant inhibition of growth and no effect
same,inhibitory effect on cell proliferation in the small intestine,small intestine,No inhibitory effect
same,inhibitory effect on cell proliferation in epidermis,epidermis,No inhibitory effect
same,number of accumulated metaphases,"[1]; 2-4h after injection, 10^-12 mole per animal i.p.",significantly reduced
same,"cell proliferation in the large intestinal epithelium (mitotic rate), Treated",[1]; 10^-6 mole per animal i.p.,0.047
same,"cell proliferation in the large intestinal epithelium (mitotic rate), Treated",[1]; 10^-9 mole per animal i.p.,0.044
same,inhibition of mitotic rate in the large intestinal epithelium,[1]; 10^-11 mole per animal,"smaller, but significant inhibition"
same,"cell proliferation in the large intestinal epithelium (mitotic rate), Treated","[1]; 10^-11 mole per animal i.p., p<0.05",0.021
same,reduction of the number of accumulated metaphases,[1]; 10^-12 mole per animal,more than 50%
same,"cell proliferation in the large intestinal epithelium (mitotic rate), Treated","[1]; 10^-12 mole per animal i.p., p<0.05",0.018
same,"mitotic rate in the large intestinal epithelium, Treated group Mean","[1]; 10^-12 mole per animal, synthetic peptide, seven identical experiments in mice, one line each, p<0.05",0.018 and 0.021 and 0.026 and 0.043 and 0.025
same,"cell proliferation in the large intestinal epithelium (mitotic rate), Treated",[1]; 10^-15 mole per animal i.p.,0.042
same,"cell proliferation in the large intestinal epithelium (mitotic rate), Treated",[1]; 10^-18 mole per animal i.p.,0.035
same,"Mitotic rate, Treated","[1]; 2 h after single i.p. injection, 10^-12 mole per animal",0.021
same,"Mitotic rate, Treated","[1]; 4 h after single i.p. injection, 10^-12 mole per animal",0.018
same,"Mitotic rate, Treated","[1]; 6 h after single i.p. injection, 10^-12 mole per animal",0.027
same,"Mitotic rate, Treated","[1]; 8 h after single i.p. injection, 10^-12 mole per animal",0.031
same,"Mitotic rate, Treated","[1]; 12 h after single i.p. injection, 10^-12 mole per animal",0.019
same,"Mitotic rate, Treated","[1]; 15 h after single i.p. injection, 10^-12 mole per animal",0.010
same,"Mitotic rate, Treated","[1]; 18 h after single i.p. injection, 10^-12 mole per animal",0.027
same,"Mitotic rate, Treated","[1]; 24 h after single i.p. injection, 10^-12 mole per animal",0.057
same,"mitotic rate, second effect","[1]; approximately 15h after injection, less pronounced than the first, 10^-12 mole per animal",new Wave of inhibition
same,decrease in cell proliferation in the large intestinal epithelium,[1]; doses higher than 10^-11 or lower than 10^-12 mole per animal,no significant decrease
same,mitotic count in the treated group,"[1]; thereafter, for a period of 6-8h, not formally significant, 10^-12 mole per animal",exceeded the control level

# Reference: patent US4956344A, “Method for treatment of lesions in the large intestinal epithelium with a tripeptide” (Hafslund Nycomed A/S, priority 1989, dated 1990)
